Data: ChEMBL document CHEMBL5550167, “Emerging trends in small molecule inhibitors targeting aldosterone synthase: A new paradigm in cardiovascular disease treatment” (Eur J Med Chem, 2024)

Tests used:
CYP11B1 = biological target: T1, CYP11B1 (Homo sapiens, UniProt P15538); experiment: (§1) Inhibition of CYP11B1 (unknown origin); type: ADME
T1 sequence (P15538 whole entry): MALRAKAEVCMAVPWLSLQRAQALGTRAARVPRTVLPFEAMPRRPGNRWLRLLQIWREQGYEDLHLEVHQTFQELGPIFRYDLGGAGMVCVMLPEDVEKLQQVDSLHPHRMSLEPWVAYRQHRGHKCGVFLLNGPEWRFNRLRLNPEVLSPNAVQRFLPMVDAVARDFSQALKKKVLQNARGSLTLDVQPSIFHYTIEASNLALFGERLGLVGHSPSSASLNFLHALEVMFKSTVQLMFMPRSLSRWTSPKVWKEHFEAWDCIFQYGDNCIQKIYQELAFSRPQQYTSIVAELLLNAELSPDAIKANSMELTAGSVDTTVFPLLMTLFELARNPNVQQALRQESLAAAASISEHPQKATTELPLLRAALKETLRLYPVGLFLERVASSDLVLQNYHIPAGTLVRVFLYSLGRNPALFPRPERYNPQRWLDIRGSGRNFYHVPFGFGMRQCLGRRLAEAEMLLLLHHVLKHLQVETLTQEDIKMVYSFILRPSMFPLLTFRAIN

[1] = Metabolic stability in human liver microsomes assessed as half life measured upto 60 mins by LC/MS-MS analysis; type: ADME, Microsome
[2] = biological target: T2, Cytochrome P450 11B2, mitochondrial (Homo sapiens, UniProt P19099); experiment: Inhibition of CYP11B2 (unknown origin); type: ADME
T2 sequence (P19099 whole entry): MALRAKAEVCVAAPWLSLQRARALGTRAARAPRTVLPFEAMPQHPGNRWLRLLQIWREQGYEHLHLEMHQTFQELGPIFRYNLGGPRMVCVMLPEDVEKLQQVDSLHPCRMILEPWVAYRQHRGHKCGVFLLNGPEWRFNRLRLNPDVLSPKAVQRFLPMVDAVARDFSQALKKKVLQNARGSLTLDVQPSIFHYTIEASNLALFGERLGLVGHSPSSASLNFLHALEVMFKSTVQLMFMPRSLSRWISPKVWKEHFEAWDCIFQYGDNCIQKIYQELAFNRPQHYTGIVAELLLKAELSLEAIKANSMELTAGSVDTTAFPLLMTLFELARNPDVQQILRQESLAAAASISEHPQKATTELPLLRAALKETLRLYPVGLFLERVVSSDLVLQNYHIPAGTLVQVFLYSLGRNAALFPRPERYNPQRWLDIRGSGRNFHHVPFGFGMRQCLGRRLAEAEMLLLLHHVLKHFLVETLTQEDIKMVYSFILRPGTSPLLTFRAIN

[3] = biological target: T3, Cytochrome P450 11B1, mitochondrial (Homo sapiens, UniProt P15538); experiment: as §1; type: ADME
T3 sequence (P15538 whole entry): T1 sequence (P15538 whole entry)

[4] = biological target: T2, Cytochrome P450 11B2, mitochondrial; experiment: Inhibition of human CYP11B2 stably expressed in G-402 cells; type: ADME, cell-based
[5] = biological target: T2, Cytochrome P450 11B2, mitochondrial; experiment: Inhibition of human CYP11B2 expressed in human NCI-H295 cells incubated for 48 hrs by radioimmuno assay; type: ADME, cell-based

| Compound | IC50 [2] | further results |
| --- | --- | --- |
| COc1cc2c(cc1-c1cccnc1)CCC(=O)N2C |  | IC50 (CYP11B1): 1100 nM |
| Cc1nnc2n1-c1ccc(-c3cncc([C@](C)(O)C(F)(F)F)c3)cc1CC2 | 64 nM | half-life [1]: 2 h |
| Cc1c(-c2cccnc2)[nH]c2ccccc12 |  | IC50 [3]: 81 nM |
| Cn1c(-c2cccnc2)c(C#N)c2ccc(Cl)cc21 |  | IC50 [3]: 107 nM |
| Cn1cc(C(=O)N2CC(Oc3cncc(N4C(=O)c5ccc(Cl)cc5C4(C)C)c3)C2)cn1 |  | IC50 [4]: 0.5 nM |
| COc1ccc2c(c1)CC(C)C(c1cncc3ccccc13)=C2 (stereo unspecified) |  | IC50 [5]: 0.5 nM |
| Cn1nccc1-c1cncc(N2CCc3cc(Cl)ccc3C2=O)c1Cl |  | IC50 [4]: 6.2 nM |
| Cc1c(F)cncc1C1COc2c(cccc2C(N)=O)O1 (stereo unspecified) |  | IC50 (CYP11B1): 2600 nM |
| CC1(c2ccccc2)CCc2cncc(-c3ccc(C(F)(F)F)cc3F)c21 (stereo unspecified) | 33 nM | IC50 [3]: 738 nM |
| N#Cc1cccc2c1OCC(c1cncc(C(O)C3CCOCC3)c1)O2 (stereo unspecified) | < 10 nM |  |
| CC(C)CCC1(c2ccccc2Cl)C(=O)N(Cc2ccc(F)cc2)Cc2cncn21 (stereo unspecified) | 4 nM |  |
| N#Cc1ccc(-c2cncc3c2CCCC3)cc1 | 40 nM |  |
| CN(C)C(=O)CC1CCCc2c(-c3ccc(C(F)(F)F)cc3F)cncc21 (stereo unspecified) | 32 nM |  |
| N#Cc1cccc2c1OCC(c1cncc(CN3CCOC3=O)c1)O2 (stereo unspecified) | < 10 nM |  |
| N#Cc1cccc2c1OCC(c1cncc(CN3CCCCS3(=O)=O)c1)O2 (stereo unspecified) | < 10 nM |  |
| CCn1cc(C(=O)N2CC3(C2)CN(c2cncc(N4C(=O)c5ccc(Cl)cc5C4(C)C)c2)C3)cn1 |  | IC50 [4]: 0.23 nM |
| CCCC1(c2ccc(C#N)cc2OC)C(=O)N(Cc2ccccc2)Cc2cncn21 (stereo unspecified) | 4 nM |  |
| CNC(=O)Cn1cc(NC(=O)CN2CCN(c3cncc(-c4ccc(Cl)cc4)c3)CC2)cn1 | 3 nM |  |
| CC1(C)C(=O)Nc2cccc(Cl)c2C1n1cncc1CO (stereo unspecified) | 7 nM |  |
| CS(=O)(=O)COc1cncc(C2COc3c(C#N)cccc3O2)c1 (stereo unspecified) | < 10 nM |  |
| CC1(C)CN(Cc2ccccc2)c2ccccc2C1N1C=NCC1CO (stereo unspecified) | 6 nM |  |
| O=C(CC1CCc2c(-c3ccc(C(F)(F)F)cc3F)cncc21)N1CCCCC1 (stereo unspecified) | 2 nM | IC50 [3]: 10 nM |
| CC(C)NC(=O)CN1CCN(c2cncc(-c3ccc4c(c3)CCO4)n2)C1 | 2.2 nM |  |
